Results taken from PubChem BioAssay (NCI).
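A five-concentration, 48-hour dose response in 96-well plates underlies each endpoint, interpolated linearly between surrounding concentrations. TGI: concentration producing complete growth inhibition.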

What was measured:
Experiment in all cases: NCI-60 cell line screen, 48 h
786-0 renal = system: 786-0 renal
HT29 colon = system: HT29 colon
IGROV1 ovarian = system: IGROV1 ovarian
K-562 leukemia = system: K-562 leukemia
M14 melanoma = system: M14 melanoma
OVCAR-4 ovarian = system: OVCAR-4 ovarian
OVCAR-8 ovarian = system: OVCAR-8 ovarian
SF-268 CNS = system: SF-268 CNS
SF-539 CNS = system: SF-539 CNS
SK-MEL-2 melanoma = system: SK-MEL-2 melanoma
SN12C renal = system: SN12C renal
TK-10 renal = system: TK-10 renal

## C[C@H]1CCC/C=C/[C@@H]2C[C@H](OC(=O)CN(C)C)C[C@H]2[C@H](O)/C=C/C(=O)O1
786-0 renal
  TGI: > 100 µM
HT29 colon
  TGI: 1.07 µM
IGROV1 ovarian
  TGI: > 29.7 µM
K-562 leukemia
  TGI: > 100 µM
M14 melanoma
  TGI: > 19.9 µM
OVCAR-4 ovarian
  TGI: 9.64 µM
OVCAR-8 ovarian
  TGI: 5.54 µM
SF-268 CNS
  TGI: > 100 µM
SF-539 CNS
  TGI: > 48.2 µM
SK-MEL-2 melanoma
  TGI: 1.36 µM
SN12C renal
  TGI: 6.45 µM
TK-10 renal
  TGI: 1.93 µM

## COC(=O)c1c(C)cccc1C1CN=NC12Cc1cc(C)c(C)cc1C2=O (stereo not drawn)
786-0 renal
  TGI: > 100 µM
HT29 colon
  TGI: > 100 µM
IGROV1 ovarian
  TGI: > 100 µM
K-562 leukemia
  TGI: > 100 µM
M14 melanoma
  TGI: > 100 µM
OVCAR-4 ovarian
  TGI: > 100 µM
OVCAR-8 ovarian
  TGI: > 100 µM
SF-268 CNS
  TGI: > 100 µM
SF-539 CNS
  TGI: > 100 µM
SK-MEL-2 melanoma
  TGI: > 100 µM
SN12C renal
  TGI: > 100 µM
TK-10 renal
  TGI: > 100 µM

## O=C(Nc1ccc(Cl)cc1Cl)C1C(=O)OC2(CCCCC2)OC1=O
786-0 renal
  TGI: 30.3 µM
HT29 colon
  TGI: 25 µM
IGROV1 ovarian
  TGI: 64.1 µM
K-562 leukemia
  TGI: 43.1 µM
M14 melanoma
  TGI: 30.1 µM
OVCAR-4 ovarian
  TGI: > 100 µM
OVCAR-8 ovarian
  TGI: 39.6 µM
SF-268 CNS
  TGI: 50.5 µM
SF-539 CNS
  TGI: 23.6 µM
SK-MEL-2 melanoma
  TGI: 12.6 µM
SN12C renal
  TGI: 49.4 µM
TK-10 renal
  TGI: > 100 µM

## O=C1C(Cl)=CC2(C=C1Cl)CCN=c1c(O)c3c(c(O)c12)=NC=N3
786-0 renal
  TGI: > 100 µM
HT29 colon
  TGI: 71.8 µM
IGROV1 ovarian
  TGI: > 100 µM
K-562 leukemia
  TGI: > 100 µM
M14 melanoma
  TGI: > 100 µM
OVCAR-4 ovarian
  TGI: > 100 µM
OVCAR-8 ovarian
  TGI: > 100 µM
SF-268 CNS
  TGI: > 100 µM
SF-539 CNS
  TGI: 88.4 µM
SK-MEL-2 melanoma
  TGI: 63.1 µM
SN12C renal
  TGI: > 100 µM
TK-10 renal
  TGI: > 100 µM
